How the values were obtained:
Assay type in all cases: in vivo
[1] = test system: redroot pigweed (Amaranthus retroflexus, AMARE); experiment: Pre-emerge test, greenhouse herbicide activity screening; settings: pre-emerge, rated 14 days after application, 0 = no damage, 100 = complete death
Outline: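 Rating: 0–100 visual injury, 14 DAA. Application: acetone, 187 l/ha, 15–1000 g ai/ha, flat-fan track sprayer with nozzle 40–45 cm above soil or canopy. Post-emerge runs used 0.25% v/v surfactant on 2–3 leaf plants.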

[2] = test system: barnyardgrass (Echinochloa crus-galli, ECHCG); experiment: as above; settings: pre-emerge, rated 14 days after application, 0 = no damage, 100 = complete death
Outline: (§1)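 Plants grown in 10 cm pots of sandy loam mix received acetone-dissolved compounds through a moving flat-fan nozzle. Doses ranged from 15 to 1000 g ai/ha. Pre-emerge pots were seeded one day earlier, post-emerge pots 8–21 days earlier. Fourteen days on, each pot was graded 0–100 for damage.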

[3] = test system: green foxtail (Setaria viridis, SETVI); experiment: as above; settings: pre-emerge, rated 14 days after application, 0 = no damage, 100 = complete death
Outline: as §1

[4] = test system: ivyleaf morningglory (Ipomoea hederacea, IPOHE); experiment: as above; settings: pre-emerge, rated 14 days after application, 0 = no damage, 100 = complete death
Outline: as §1

[5] = test system: johnsongrass (Sorghum halepense, SORHA); experiment: as above; settings: pre-emerge, rated 14 days after application, 0 = no damage, 100 = complete death
Outline: as §1

[6] = test system: lambsquarters (Chenopodium album, CHEAL); experiment: as above; settings: pre-emerge, rated 14 days after application, 0 = no damage, 100 = complete death
Outline: as §1

[7] = test system: large crabgrass (Digitaria sanguinalis, DIGSA); experiment: as above; settings: pre-emerge, rated 14 days after application, 0 = no damage, 100 = complete death
Outline: as §1

[8] = test system: sicklepod (Cassia obtusifolia, CASOB); experiment: as above; settings: pre-emerge, rated 14 days after application, 0 = no damage, 100 = complete death
Outline: as §1

[9] = test system: velvetleaf (Abutilon theophrasti, ABUTH); experiment: as above; settings: pre-emerge, rated 14 days after application, 0 = no damage, 100 = complete death
Outline: as §1

[10] = test system: field corn (Zea mays L., var. Dekalb 535, CORN); experiment: Pre-emerge test, crop safety; settings: pre-emerge, rated 14 days after application, 0 = no damage, 100 = complete death
Outline: (§2)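 Herbicidal damage is scored 0 (none) to 100 (complete plant death) two weeks after a simulated field spray. Rates span 15–1000 g ai/ha, delivered in acetone at 187 l/ha. For post-emergence treatments, plants have 2–3 leaves and the spray carries 0.25% v/v non-ionic surfactant.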

[11] = test system: upland rice (Oryza sp., var. Tebonnet, RICE); experiment: Pre-emerge test, crop safety; settings: pre-emerge, rated 14 days after application, 0 = no damage, 100 = complete death
Outline: as §2

[12] = test system: barnyardgrass (Echinochloa crus-galli, ECHCG); experiment: Post-emerge test, greenhouse herbicide activity screening; settings: phytotoxicity rating 0-100 (0 no damage, 100 complete death), 14 days after application
Outline: (§3)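 Sandy loam pots; pre-emerge: sown 1 d pre-spray, surface-watered after, then bottom-watered. Post-emerge: sown 8–21 d before, 2–3 leaf stage, + 0.25% v/v NIS, bottom-watered. Acetone, 187 l/ha track spray, 15–1000 g ai/ha. 0–100 injury score, day 14.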

[13] = test system: common ragweed (Ambrosia artemisizfolia L., AMBEL); experiment: as above; settings: 250 g ai/ha; phytotoxicity rating 0-100 (0 no damage, 100 complete death), 14 days after application
Outline: as §3

[14] = test system: green foxtail (Setaria viridis, SETVI); experiment: as above; settings: phytotoxicity rating 0-100 (0 no damage, 100 complete death), 14 days after application
Outline: as §3

[15] = test system: ivyleaf morningglory (Ipomoea hederacea, IPOHE); experiment: as above; settings: phytotoxicity rating 0-100 (0 no damage, 100 complete death), 14 days after application
Outline: as §3

[16] = test system: johnsongrass (Sorghum halepense, SORHA); experiment: as above; settings: phytotoxicity rating 0-100 (0 no damage, 100 complete death), 14 days after application
Outline: as §3

[17] = test system: lambsquarters (Chenopodium album, CHEAL); experiment: as above; settings: phytotoxicity rating 0-100 (0 no damage, 100 complete death), 14 days after application
Outline: as §3

[18] = test system: large crabgrass (Digitaria sanguinalis, DIGSA); experiment: as above; settings: phytotoxicity rating 0-100 (0 no damage, 100 complete death), 14 days after application
Outline: as §3

[19] = test system: redroot pigweed (Amaranthus retroflexus, AMARE); experiment: as above; settings: phytotoxicity rating 0-100 (0 no damage, 100 complete death), 14 days after application
Outline: as §3

[20] = test system: sicklepod (Cassia obtusifolia, CASOB); experiment: as above; settings: phytotoxicity rating 0-100 (0 no damage, 100 complete death), 14 days after application
Outline: as §3

[21] = test system: velvetleaf (Abutilon theophrasti, ABUTH); experiment: as above; settings: phytotoxicity rating 0-100 (0 no damage, 100 complete death), 14 days after application
Outline: as §3

[22] = test system: field corn (Zea mays L., var. Dekalb 535, CORN); experiment: Post-emerge test, crop safety; settings: phytotoxicity rating 0-100 (0 no damage, 100 complete death), 14 days after application
Outline: (§4)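 Each test used a mechanized track sprayer delivering 187 l/ha of acetone solution at 15–1000 g ai/ha. Post-emerge foliage at 2–3 leaves was treated with added 0.25% v/v non-ionic surfactant and bottom-watered only. Injury was assessed on day 14, where 100 means total kill.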

[23] = test system: upland rice (Oryza sp., var. Tebonnet, RICE); experiment: Post-emerge test, crop safety; settings: phytotoxicity rating 0-100 (0 no damage, 100 complete death), 14 days after application
Outline: as §4

With `COc1c(Cl)cc(F)c(-n2c(=O)cc(C(F)(F)F)n(C)c2=O)c1NC(=O)C1CCCCC1` [2-19] the “Pre-emerge Herbicidal Activity AMARE (phytotoxicity rating, scale 0-100)” value ([1]; 63 g ai/ha) was 80, the “Pre-emerge Herbicidal Activity AMARE (phytotoxicity rating, scale 0-100)” value ([1]; 250 g ai/ha) was 100 and the “Pre-emerge Herbicidal Activity ECHCG (phytotoxicity rating, scale 0-100)” value ([2]; 63 g ai/ha) was 0. The “Pre-emerge Herbicidal Activity ECHCG (phytotoxicity rating, scale 0-100)” value ([2]; 250 g ai/ha) was 50, the “Pre-emerge Herbicidal Activity SETVI (phytotoxicity rating, scale 0-100)” value ([3]; 63 g ai/ha) was 20 and the “Pre-emerge Herbicidal Activity SETVI (phytotoxicity rating, scale 0-100)” value ([3]; 250 g ai/ha) was 100. For the same compound, the “Pre-emerge Herbicidal Activity IPOHE (phytotoxicity rating, scale 0-100)” value ([4]; 63 g ai/ha) was 10, the “Pre-emerge Herbicidal Activity IPOHE (phytotoxicity rating, scale 0-100)” value ([4]; 250 g ai/ha) was 100 and the “Pre-emerge Herbicidal Activity SORHA (phytotoxicity rating, scale 0-100)” value ([5]; 63 g ai/ha) was 0. For the same compound, the “Pre-emerge Herbicidal Activity SORHA (phytotoxicity rating, scale 0-100)” value ([5]; 250 g ai/ha) was 60, the “Pre-emerge Herbicidal Activity CHEAL (phytotoxicity rating, scale 0-100)” value ([6]; 63 g ai/ha) was 95 and the “Pre-emerge Herbicidal Activity CHEAL (phytotoxicity rating, scale 0-100)” value ([6]; 250 g ai/ha) was 100. The “Pre-emerge Herbicidal Activity DIGSA (phytotoxicity rating, scale 0-100)” value ([7]; 63 g ai/ha) was 40, the “Pre-emerge Herbicidal Activity DIGSA (phytotoxicity rating, scale 0-100)” value ([7]; 250 g ai/ha) was 100 and the “Pre-emerge Herbicidal Activity CASOB (phytotoxicity rating, scale 0-100)” value ([8]; 63 g ai/ha) was 0. For the same compound, the “Pre-emerge Herbicidal Activity CASOB (phytotoxicity rating, scale 0-100)” value ([8]; 250 g ai/ha) was 10, the “Pre-emerge Herbicidal Activity ABUTH (phytotoxicity rating, scale 0-100)” value ([9]; 63 g ai/ha) was 90 and the “Pre-emerge Herbicidal Activity ABUTH (phytotoxicity rating, scale 0-100)” value ([9]; 250 g ai/ha) was 100. For the same compound, the “Pre-emerge crop damage CORN (phytotoxicity rating, scale 0-100)” value ([10]; 63 g ai/ha) was 5, the “Pre-emerge crop damage CORN (phytotoxicity rating, scale 0-100)” value ([10]; 250 g ai/ha) was 40 and the “Pre-emerge crop damage RICE (phytotoxicity rating, scale 0-100)” value ([11]; 63 g ai/ha) was 10. The “Pre-emerge crop damage RICE (phytotoxicity rating, scale 0-100)” value ([11]; 250 g ai/ha) was 60, the “Post-emerge Herbicidal Activity ECHCG” value ([12]; 63 g ai/ha) was 0 and the “Post-emerge Herbicidal Activity ECHCG” value ([12]; 250 g ai/ha) was 0. For the same compound, the “Post-emerge Herbicidal Activity AMBEL” value [13] was 30, the “Post-emerge Herbicidal Activity SETVI” value ([14]; 63 g ai/ha) was 0 and the “Post-emerge Herbicidal Activity SETVI” value ([14]; 250 g ai/ha) was 30. The “Post-emerge Herbicidal Activity IPOHE” value ([15]; 63 g ai/ha) was 70, the “Post-emerge Herbicidal Activity IPOHE” value ([15]; 250 g ai/ha) was 100 and the “Post-emerge Herbicidal Activity SORHA” value ([16]; 63 g ai/ha) was 0. The “Post-emerge Herbicidal Activity SORHA” value ([16]; 250 g ai/ha) was 0, the “Post-emerge Herbicidal Activity CHEAL” value ([17]; 63 g ai/ha) was 50 and the “Post-emerge Herbicidal Activity CHEAL” value ([17]; 250 g ai/ha) was 50. The “Post-emerge Herbicidal Activity DIGSA” value ([18]; 63 g ai/ha) was 0, the “Post-emerge Herbicidal Activity DIGSA” value ([18]; 250 g ai/ha) was 0 and the “Post-emerge Herbicidal Activity AMARE” value ([19]; 63 g ai/ha) was 40. The “Post-emerge Herbicidal Activity AMARE” value ([19]; 250 g ai/ha) was 75, the “Post-emerge Herbicidal Activity CASOB” value ([20]; 63 g ai/ha) was 0 and the “Post-emerge Herbicidal Activity CASOB” value ([20]; 250 g ai/ha) was 10. For the same compound, the “Post-emerge Herbicidal Activity ABUTH” value ([21]; 63 g ai/ha) was 90, the “Post-emerge Herbicidal Activity ABUTH” value ([21]; 250 g ai/ha) was 100 and the “Post-emerge Herbicidal Activity CORN (crop damage)” value ([22]; 63 g ai/ha) was 0. The “Post-emerge Herbicidal Activity CORN (crop damage)” value ([22]; 250 g ai/ha) was 0, the “Post-emerge Herbicidal Activity RICE (crop damage)” value ([23]; 63 g ai/ha) was 0 and the “Post-emerge Herbicidal Activity RICE (crop damage)” value ([23]; 250 g ai/ha) was 20.

Reference: patent publication US6355799B1, “Substituted benzene compounds, process for their preparation, and herbicidal and defoliant compositions containing them” (ISK Americas Incorporated, priority 1997, dated 2002)
